Laboratory results from PubChem BioAssay AID1963446 (Molecular Pharmacology Branch, DTP, NCI, 2024).

Test system: 993429-296-R-J1-PDC complex spheroid growth, percent test/control
Test: Anticancer human tumor 993429-296-R-J1-PDC patient-derived uterine sarcoma cell line growth inhibition [Asc]
Conditions: for IC50: curve of first compound; for viability, T/C: stronger effect = lower value
Summary of the method: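 Complex spheroids combining tumor cells with HUVEC endothelial cells and human MSCs, at 37 degrees C, 5% CO2; agents tested alone or combined, half-log dilutions from at or near clinical Cmax, or 10 microM if Cmax unknown.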

[1] = second compound 0.1 µM, first compound 0.000316 µM
[2] = second compound 0.1 µM, first compound 0.001 µM
[3] = second compound 0.1 µM, first compound 0.00316 µM
[4] = second compound 0.1 µM, first compound 0.01 µM
[5] = second compound 0.1 µM, first compound 0.0316 µM
[6] = second compound 0.1 µM, first compound 0.1 µM
[7] = second compound 0.316 µM, first compound 0.000316 µM
[8] = second compound 0.316 µM, first compound 0.001 µM
[9] = second compound 0.316 µM, first compound 0.00316 µM
[10] = second compound 0.316 µM, first compound 0.01 µM
[11] = second compound 0.316 µM, first compound 0.0316 µM
[12] = second compound 0.316 µM, first compound 0.1 µM
[13] = second compound 1 µM, first compound 0.000316 µM
[14] = second compound 1 µM, first compound 0.001 µM
[15] = second compound 1 µM, first compound 0.00316 µM
[16] = second compound 1 µM, first compound 0.01 µM
[17] = second compound 1 µM, first compound 0.0316 µM
[18] = second compound 1 µM, first compound 0.1 µM
[19] = second compound 3.16 µM, first compound 0.00316 µM
[20] = second compound 3.16 µM, first compound 0.01 µM
[21] = second compound 3.16 µM, first compound 0.0316 µM
[22] = second compound 3.16 µM, first compound 0.1 µM
[23] = second compound 10 µM, first compound 0.00316 µM
[24] = second compound 10 µM, first compound 0.01 µM
[25] = second compound 10 µM, first compound 0.0316 µM
[26] = second compound 10 µM, first compound 0.1 µM
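Also: spheroids exposed to compounds for seven days.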

| IC50 (second compound 0.1 µM) [nM] | IC50 (second compound 0.316 µM) [nM] | IC50 (second compound 1 µM) [nM] | Structure (SMILES) | viability, T/C [1] [%] | viability, T/C [2] [%] | viability, T/C [3] [%] | viability, T/C [4] [%] | viability, T/C [5] [%] | viability, T/C [6] [%] | viability, T/C [7] [%] | viability, T/C [8] [%] | viability, T/C [9] [%] | viability, T/C [10] [%] | viability, T/C [11] [%] | viability, T/C [12] [%] | viability, T/C [13] [%] | viability, T/C [15] [%] | viability, T/C [16] [%] | viability, T/C [17] [%] | viability, T/C [18] [%] | other results |
| --- | --- | --- | --- | --- | --- | --- | --- | --- | --- | --- | --- | --- | --- | --- | --- | --- | --- | --- | --- | --- | --- |
| 3.94 | 5.81 | < 0.316 | Cn1ncnc1[C@H]1c2n[nH]c(=O)c3cc(F)cc(c23)N[C@@H]1c1ccc(F)cc1 + CNC(C)C(=O)NC1CN(S(=O)(=O)c2cccc(S(=O)(=O)N3CCC4CCC(C(=O)NC(c5ccccc5)c5ccccc5)N4C(=O)C(NC(=O)C(C)NC)C3)c2)CCC2CCC(C(=O)NC(c3ccccc3)c3ccccc3)N2C1=O | 52 | 52.7 | 51.2 | 45.3 | 32.5 | 23.2 | 56.5 | 60.7 | 54.8 | 44.4 | 17.5 | 13.7 | 50.6 | 46.9 | 39.4 | 21.6 | 10.9 | IC50 (second compound 0.01 µM): 4.14 nM; IC50 (second compound 0.0316 µM): 7.99 nM; viability, T/C (second compound 0.01 µM, first compound 0.000316 µM): 75.9%; viability, T/C (second compound 0.01 µM, first compound 0.001 µM): 54.9%; viability, T/C (second compound 0.01 µM, first compound 0.00316 µM): 52.7%; viability, T/C (second compound 0.01 µM, first compound 0.01 µM): 47%; viability, T/C (second compound 0.01 µM, first compound 0.0316 µM): 32.6%; viability, T/C (second compound 0.01 µM, first compound 0.1 µM): 21.3%; viability, T/C (second compound 0.0316 µM, first compound 0.000316 µM): 60.4%; viability, T/C (second compound 0.0316 µM, first compound 0.001 µM): 69.1%; viability, T/C (second compound 0.0316 µM, first compound 0.00316 µM): 54.1%; viability, T/C (second compound 0.0316 µM, first compound 0.01 µM): 48.9%; viability, T/C (second compound 0.0316 µM, first compound 0.0316 µM): 35.9%; viability, T/C (second compound 0.0316 µM, first compound 0.1 µM): 26.5%; viability, T/C [14]: 45.7% |
| > 100 | 8.25 | < 0.316 | NC1CCC(NC2CC2c2ccccc2)CC1 (stereo not given) + Cc1c(S(C)(=O)=O)c(-c2cc(F)cc(N3CCN(c4ccc(NS(=O)(=O)c5ccc(NC(CCN6CCC(C(=O)OCCCP(=O)(O)O)CC6)CSc6ccccc6)c(S(=O)(=O)C(F)(F)F)c5)cc4)CC3)c2)c(-c2ccc(Cl)cc2)n1C(C)C | 72.7 | 65.1 | 65 | 57.6 | 65.2 | 65.3 | 61.2 | 60.9 | 57 | 46.4 | 47.9 | 51.6 | 32.5 | 29.1 | 30.5 | 28.3 | 35.4 | IC50 (second compound 3.16 µM): < 0.316 nM; IC50 (second compound 10 µM): < 0.316 nM; viability, T/C [14]: 30.4%; viability, T/C (second compound 3.16 µM, first compound 0.000316 µM): 27%; viability, T/C (second compound 3.16 µM, first compound 0.001 µM): 28.9%; viability, T/C [19]: 28.6%; viability, T/C [20]: 25.6%; viability, T/C [21]: 30.5%; viability, T/C [22]: 31.7%; viability, T/C (second compound 10 µM, first compound 0.000316 µM): 30%; viability, T/C (second compound 10 µM, first compound 0.001 µM): 41.7%; viability, T/C [23]: 26.4%; viability, T/C [24]: 26.3%; viability, T/C [25]: 32.9%; viability, T/C [26]: 36.8% |
| 7.5 | 9.6 | 4.44 | O=C(c1ccc(F)c(F)c1Nc1ccc(I)cc1F)N1CC(O)([C@@H]2CCCCN2)C1 + Cc1c(S(C)(=O)=O)c(-c2cc(F)cc(N3CCN(c4ccc(NS(=O)(=O)c5ccc(NC(CCN6CCC(C(=O)OCCCP(=O)(O)O)CC6)CSc6ccccc6)c(S(=O)(=O)C(F)(F)F)c5)cc4)CC3)c2)c(-c2ccc(Cl)cc2)n1C(C)C | – | – | 63 | 42.8 | 31.9 | 10.2 | – | – | 55.9 | 52.7 | 29.1 | 15.3 | – | 57.6 | 30.8 | 19.3 | 5.07 | IC50 (second compound 3.16 µM): < 3.16 nM; IC50 (second compound 10 µM): 15.8 nM; viability, T/C (second compound 0.1 µM, first compound 0.316 µM): 1.93%; viability, T/C (second compound 0.1 µM, first compound 1 µM): 0.33%; viability, T/C (second compound 0.316 µM, first compound 0.316 µM): 1.67%; viability, T/C (second compound 0.316 µM, first compound 1 µM): 0.23%; viability, T/C (second compound 1 µM, first compound 0.316 µM): 0.22%; viability, T/C (second compound 1 µM, first compound 1 µM): 0.14%; viability, T/C [19]: 39.2%; viability, T/C [20]: 30.8%; viability, T/C [21]: 21.1%; viability, T/C [22]: 2.83%; viability, T/C (second compound 3.16 µM, first compound 0.316 µM): 0.52%; viability, T/C (second compound 3.16 µM, first compound 1 µM): 0.18%; viability, T/C [23]: 72%; viability, T/C [24]: 68.7%; viability, T/C [25]: 21.6%; viability, T/C [26]: 3.49%; viability, T/C (second compound 10 µM, first compound 0.316 µM): 0.84%; viability, T/C (second compound 10 µM, first compound 1 µM): 0.16% |
